System: HepaRG
Experiment: LDH release cytotoxicity, % of total lysis control; higher = more cytotoxic
Settings: 48 h
Outline: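 Single-lot HepaRG cells on collagen I-coated 96-well plates were exposed for 48 h in duplicate, in serum-free induction medium with 0.5% DMSO, to eight-point half-log series (test chemicals top 100 µM). Total lysis wells received 0.1% Triton X, and LDH leakage into 50 µL spent medium was read as resorufin fluorescence (CytoTox-ONE, Tecan Safire). Percent cytotoxicity was normalized to on-plate vehicle and total lysis controls and averaged over the duplicates.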

CCCCNC(=O)OCC#CI [3-Iodo-2-propynyl-N-butylcarbamate]
Settings | LDH release cytotoxicity [%]
0.0301998 µM | 3.83
0.0955 µM | 4.17
0.301997 µM | 4.24
0.955 µM | 4.49
3.01998 µM | 4.53
9.55 µM | 4.22
30.199752 µM | 19.6
95.5 µM | 82.9

Cc1cccc(N)c1 [3-Methylaniline]
Settings | LDH release cytotoxicity [%]
0.03162 µM | -1.1
0.1 µM | -0.218
0.3162278 µM | -1
1 µM | -0.834
3.16228 µM | -0.813
10 µM | 0.339
31.6228 µM | 0.0207
100 µM | 1.94

CC(=O)OCCC(C)C [3-Methylbutyl acetate]
Settings | LDH release cytotoxicity [%]
0.03162 µM | -1.61
0.1 µM | -1.62
0.3162278 µM | -0.432
1 µM | -1.89
3.16228 µM | -0.737
10 µM | 0.266
31.6228 µM | 1.88
100 µM | 2.4

Cc1cccc([N+](=O)[O-])c1 [3-Nitrotoluene]
Settings | LDH release cytotoxicity [%]
0.0324133 µM | -0.599
0.1025 µM | -1.561
0.324134 µM | -1.45
1.025 µM | -0.805
3.24133 µM | -1.27
10.25 µM | -0.551
32.4133 µM | -0.321
102.5 µM | 0.844

O=C(O)c1cccc(Oc2ccccc2)c1 [3-Phenoxybenzoic acid]
Settings | LDH release cytotoxicity [%]
0.0253 µM | 2.02
0.08 µM | 1.68
0.252982 µM | 1.75
0.8 µM | 0.842
2.52982 µM | 0.659
8 µM | -0.233
25.2982 µM | -0.367
80 µM | -1.57

N#Cc1cccnc1 [3-Pyridinecarbonitrile]
Settings | LDH release cytotoxicity [%]
0.03162 µM | -1.36
0.1 µM | -2.41
0.3162278 µM | -2.8
1 µM | -2.872
3.16228 µM | -3.04
10 µM | -2.26
31.6228 µM | -2.04
100 µM | -1.31

CC(c1ccc(O)cc1)(c1ccc(O)cc1)c1ccc(O)cc1 [4,4',4''-Ethane-1,1,1-triyltriphenol]
Settings | LDH release cytotoxicity [%]
0.03162 µM | -1.89
0.1 µM | -1.24
0.3162278 µM | -1.7
1 µM | -1.8
3.16228 µM | -0.727
10 µM | -1.47
31.6228 µM | -1.43
100 µM | -0.486

c1cc(-c2ccncc2)ccn1 [4,4'-Bipyridine]
Settings | LDH release cytotoxicity [%]
0.03162 µM | -0.85
0.1 µM | -1.15
0.3162278 µM | -0.941
1 µM | -1.18
3.16228 µM | -1.05
10 µM | 4.58
31.6228 µM | 24
100 µM | 18

Cc1cc(Cc2ccc(N)c(C)c2)ccc1N [4,4'-Diamino-3,3'-dimethyldiphenylmethane]
Settings | LDH release cytotoxicity [%]
0.03162 µM | -1.54
0.1 µM | -0.939
0.3162278 µM | -0.759
1 µM | -1.39
3.16228 µM | -0.662
10 µM | -0.124
31.6228 µM | -0.39
100 µM | -0.749

Nc1ccc(Cc2ccc(N)cc2)cc1 [4,4'-Diaminobiphenyl methane]
Settings | LDH release cytotoxicity [%]
0.03162 µM | -0.659
0.1 µM | -2.27
0.3162278 µM | -2.24
1 µM | -2.78
3.16228 µM | -2.52
10 µM | -2.46
31.6228 µM | -1.8
100 µM | 0.228

CN(C)c1ccc(Cc2ccc(N(C)C)cc2)cc1 [4,4'-Methylenebis(N,N-dimethylaniline)]
Settings | LDH release cytotoxicity [%]
0.03162 µM | -0.47
0.1 µM | -1.28
0.3162278 µM | -1.73
1 µM | -1.6
3.16228 µM | -1.29
10 µM | -1.04
31.6228 µM | -0.536
100 µM | 0.0839

Nc1ccc(Oc2ccc(N)cc2)cc1 [4,4'-Oxydianiline]
Settings | LDH release cytotoxicity [%]
0.031623 µM | -1.51
0.1 µM | -3.05
0.316228 µM | -1.18
1 µM | -2.52
3.16228 µM | -1.772
10 µM | -0.999
31.6228 µM | 17
100 µM | 62.8

C=CCc1cc(S(=O)(=O)c2ccc(O)c(CC=C)c2)ccc1O [4,4'-Sulfonylbis[2-(prop-2-en-1-yl)phenol]]
Settings | LDH release cytotoxicity [%]
0.03162 µM | -0.87
0.1 µM | -2.88
0.3162278 µM | -1.86
1 µM | -2.39
3.16228 µM | -2.01
10 µM | -1.55
31.6228 µM | -1.16
100 µM | 0.193

CC(C)(C)CC(C)(C)c1ccc(O)cc1 [4-(1,1,3,3-Tetramethylbutyl)phenol]
Settings | LDH release cytotoxicity [%]
0.03162 µM | -1.49
0.1 µM | -1.58
0.3162278 µM | -1.966
1 µM | -1.68
3.16228 µM | -1.21
10 µM | -1.69
31.6228 µM | -0.473
100 µM | 42.9

CCC(C)(C)C1CCC(O)CC1 (centres undefined) [4-(2-Methylbutan-2-yl)cyclohexanol]
Settings | LDH release cytotoxicity [%]
0.03162 µM | -0.419
0.1 µM | -1.92
0.3162278 µM | -1.25
1 µM | -1.82
3.16228 µM | -2.17
10 µM | -1.05
31.6228 µM | -1.3
100 µM | 0.0243

CCC(C)(C)c1ccc(O)cc1 [4-(2-Methylbutan-2-yl)phenol]
Settings | LDH release cytotoxicity [%]
0.03162 µM | -0.822
0.1 µM | -1.57
0.3162278 µM | -1.05
1 µM | -1.22
3.16228 µM | -1.65
10 µM | -0.249
31.6228 µM | -1.75
100 µM | 0.707

CCC(C)c1ccc(O)cc1 (centres undefined) [4-(Butan-2-yl)phenol]
Settings | LDH release cytotoxicity [%]
0.03162 µM | -1.68
0.1 µM | -2.9
0.3162278 µM | -2.9
1 µM | -3.15
3.16228 µM | -2.86
10 µM | -2.62
31.6228 µM | -1.77
100 µM | -0.982

Nn1cnnc1 [4-Amino-1,2,4-triazole]
Settings | LDH release cytotoxicity [%]
0.0320971 µM | -2.94
0.1015 µM | -2.79
0.320971 µM | -3.1
1.015 µM | -3.38
3.2097118 µM | -2.7
10.15 µM | -3.19
32.0971 µM | -3.08
101.5 µM | 0.447

Nc1ccc(N=Nc2ccccc2)cc1 [4-Aminoazobenzene]
Settings | LDH release cytotoxicity [%]
0.03162 µM | -0.0491
0.1 µM | -1.19
0.3162278 µM | -1.19
1 µM | -1.05
3.16228 µM | -1.2
10 µM | -0.585
31.6228 µM | 0.184
100 µM | 0.63

Nc1ccc(C(=O)O)cc1 [4-Aminobenzoic acid]
Settings | LDH release cytotoxicity [%]
0.031623 µM | -2.09
0.1 µM | -1.2
0.316228 µM | -0.757
1 µM | -2.3
3.16228 µM | -2.47
10 µM | -1.41
31.6228 µM | -0.777
100 µM | 1.93

CC12CCC3C(CCC4=CC(=O)CCC43C)C1CCC2=O (centres undefined) [4-Androstene-3,17-dione]
Settings | LDH release cytotoxicity [%]
0.03162 µM | -0.88
0.1 µM | -1.74
0.3162278 µM | -3.47
1 µM | -2.45
3.16228 µM | -1.84
10 µM | -1.3
31.6228 µM | -0.324
100 µM | 37.8

O=C1CCCO1 [4-Butyrolactone]
Settings | LDH release cytotoxicity [%]
0.03162 µM | -0.251
0.1 µM | -0.513
0.3162278 µM | -0.359
1 µM | -0.517
3.16228 µM | -0.65
10 µM | 0.21
31.6228 µM | -0.668
100 µM | 1.06

Nc1ccc(Cl)cc1N [4-Chloro-1,2-diaminobenzene]
Settings | LDH release cytotoxicity [%]
0.03162 µM | -0.924
0.1 µM | -0.99
0.3162278 µM | -1.38
1 µM | -1.19
3.16228 µM | -0.451
10 µM | -0.557
31.6228 µM | -0.208
100 µM | -0.194

Cc1cc(O)ccc1Cl [4-Chloro-3-methylphenol]
Settings | LDH release cytotoxicity [%]
0.03162 µM | -0.825
0.1 µM | -0.387
0.3162278 µM | -0.309
1 µM | -0.443
3.16228 µM | 0.57
10 µM | 0.611
31.6228 µM | 0.786
100 µM | 2.48

Nc1ccc(Cl)cc1 [4-Chloroaniline]
Settings | LDH release cytotoxicity [%]
0.03162 µM | -1.56
0.1 µM | -0.947
0.3162278 µM | -2.25
1 µM | -1.34
3.16228 µM | -0.444
10 µM | -1.71
31.6228 µM | -1.53
100 µM | 0.243

Clc1ccc(C(Cl)(Cl)Cl)cc1 [4-Chlorobenzotrichloride]
Settings | LDH release cytotoxicity [%]
0.03162 µM | -1.85
0.1 µM | -1.72
0.3162278 µM | -2.4
1 µM | -1.68
3.16228 µM | -1.91
10 µM | -1.134
31.6228 µM | -0.341
100 µM | 27.7

Cc1ccc(Cl)cc1 [4-Chlorotoluene]
Settings | LDH release cytotoxicity [%]
0.031623 µM | -0.192
0.1 µM | -1.27
0.316228 µM | -1.26
1 µM | -2.78
3.16228 µM | -2.43
10 µM | -1.55
31.6228 µM | -1.15
100 µM | 1.18

CC(C)(c1ccccc1)c1ccc(O)cc1 [4-Cumylphenol]
Settings | LDH release cytotoxicity [%]
0.03162 µM | -1.06
0.1 µM | 0.26
0.3162278 µM | -1.3
1 µM | -2.27
3.16228 µM | -0.891
10 µM | -0.313
31.6228 µM | 2.91
100 µM | 111

Reference: the supplement of paper PMC7840683
